Values after ≈ are worked out from the molar mass of the structure shown.
tested on: Staphylococcus aureus (ATCC29213); assay: In-vitro anti-bacterial activity, microtitre plate assay, IC90 determination (non-mycobacterial strains); assay type: cell-based; conditions: 90% inhibitory concentration for bacterial growth, 24 hours, resazurin fluorescence
Outline: (§1)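 Inoculum of about 100 TCID50 (10–60 CFU/well) in Mueller-Hinton broth, serial five-fold compound dilutions, 24 h at 37 °C in air. Growth read by resazurin fluorescence (ex 530/em 590 nm); IC90 in μg/ml as 90% growth inhibition.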

First: COc1nc2ccc(-c3cccnc3)cc2cc1C(c1cccc(Cl)c1)C1(O)CCNC(Cc2ccccc2)C1 (stereo not drawn) [Compound 15]
Second: COc1nc2ccc(Cl)cc2cc1C(c1ccc(Cl)cc1)C1(O)CCNC(Cc2ccccc2)C1 (stereo not drawn) [Compound 94]
The “IC90 STA B29213” value of the first is 1.8-fold lower: 1.74 µg/mL (≈ 3.16 µM) for the first, 3.13 µg/mL (≈ 6.17 µM) for the second.

Compared with `COc1nc2ccc(S(C)(=O)=O)cc2cc1C(c1ccc(Cl)cc1)C1(O)CCNC(Cc2ccccc2)C1` (stereo not drawn) [Compound 38], `COc1nc2ccc(SC)cc2cc1C(c1ccc(Cl)cc1)C1(O)CCNC(Cc2ccccc2)C1` (stereo not drawn) [Compound 91] is 2.1-fold lower in “IC90 STA B29213” value: 3.48 µg/mL (≈ 6.31 µM) for the first, 1.64 µg/mL (≈ 3.16 µM) for the second.

First: O=c1[nH]c2ccc(Br)cc2cc1C(c1cccc(Cl)c1)C1(O)CCNC(Cc2ccccc2)C1 (stereo not drawn) [Compound 86]
Second: CSc1nc2ccc(Br)cc2cc1C(c1ccc(Cl)cc1)C1(O)CCNC(Cc2ccccc2)C1 (stereo not drawn) [Compound 87]
The “IC90 STA B29213” value of the first is 2-fold lower: 1.82 µg/mL (≈ 3.38 µM) for the first, 3.58 µg/mL (≈ 6.3 µM) for the second.

Compared with `CSc1nc2ccc(Br)cc2cc1C(c1ccc(Cl)cc1)C1(O)CCNC(Cc2ccccc2)C1` (stereo not drawn) [Compound 88], `COc1nc2ccc(SC)cc2cc1C(c1ccc(Cl)cc1)C1(O)CCNC(Cc2ccccc2)C1` (stereo not drawn) [Compound 92] is 1.6-fold lower in “IC90 STA B29213” value: 2.63 µg/mL (≈ 4.63 µM) for the first, 1.64 µg/mL (≈ 3.16 µM) for the second.

Compared with `COc1nc2ccc(SC)cc2cc1C(c1ccc(Cl)cc1)C1(O)CCNC(Cc2ccccc2)C1` (stereo not drawn) [Compound 93], `COc1nc2ccc(Br)cc2cc1C(c1ccc(SC)cc1)C1(O)CCNC(Cc2ccccc2)C1` (stereo not drawn) [Compound 98] is 1.8-fold lower in “IC90 STA B29213” value: 3.18 µg/mL (≈ 6.13 µM) for the first, 1.78 µg/mL (≈ 3.16 µM) for the second.

With `COc1nc2ccc(Br)cc2cc1C(c1ccc(SC)cc1)C1(O)CCNC(Cc2ccccc2)C1` (stereo not drawn) [Compound 99] the “IC90 STA B29213” value was 1.78 µg/mL (≈ 3.16 µM).

tested on: Streptococcus pneumoniae (ATCC6305); assay: as above; assay type: cell-based; conditions: 90% inhibitory concentration for bacterial growth, 24 hours, resazurin fluorescence
Outline: as §1

Going from `CSc1nc2ccc(Br)cc2cc1C(c1ccc(Cl)cc1)C1(O)CCNC(Cc2ccccc2)C1` (stereo not drawn) [Compound 88] to `COc1nc2ccc(SC)cc2cc1C(c1ccc(Cl)cc1)C1(O)CCNC(Cc2ccccc2)C1` (stereo not drawn) [Compound 91], the “IC90 SPN 6305” value falls from 8.32 µg/mL (≈ 14.6 µM) to 4.63 µg/mL (≈ 8.92 µM) (1.8-fold).

`COc1nc2ccc(SC)cc2cc1C(c1ccc(Cl)cc1)C1(O)CCNC(Cc2ccccc2)C1` (stereo not drawn) [Compound 92] and `COc1nc2ccc(Br)cc2cc1C(c1ccc(SC)cc1)C1(O)CCNC(Cc2ccccc2)C1` (stereo not drawn) [Compound 99] are within 1.5-fold of each other in “IC90 SPN 6305” value: 6.54 µg/mL (≈ 12.6 µM) for the first, 6.32 µg/mL (≈ 11.2 µM) for the second.

For `COc1nc2ccc(SC)cc2cc1C(c1ccc(Cl)cc1)C1(O)CCNC(Cc2ccccc2)C1` (stereo not drawn) [Compound 93], the “IC90 SPN 6305” value was 5.66 µg/mL (≈ 10.9 µM).

same assay, conditions: Streptococcus pneumoniae, ATCC6305, 24 h, 90% inhibitory concentration for bacterial growth, resazurin fluorescence, read-out: IC90 SPN 6305

`COc1nc2ccc(-c3cccnc3)cc2cc1C(c1cccc(Cl)c1)C1(O)CCNC(Cc2ccccc2)C1` (stereo not drawn) [Compound 15] and `COc1nc2ccc(Cl)cc2cc1C(c1ccc(Cl)cc1)C1(O)CCNC(Cc2ccccc2)C1` (stereo not drawn) [Compound 94] are within 1.5-fold of each other in IC90: 6.93 µg/mL (≈ 12.6 µM) for the first, 4.95 µg/mL (≈ 9.75 µM) for the second.

`COc1nc2ccc(S(C)(=O)=O)cc2cc1C(c1ccc(Cl)cc1)C1(O)CCNC(Cc2ccccc2)C1` (stereo not drawn) [Compound 38] and `COc1nc2ccc(Br)cc2cc1C(c1ccc(SC)cc1)C1(O)CCNC(Cc2ccccc2)C1` (stereo not drawn) [Compound 98] are within 1.5-fold of each other in IC90: 6.94 µg/mL (≈ 12.6 µM) for the first, 6.32 µg/mL (≈ 11.2 µM) for the second.

Compared with `O=c1[nH]c2ccc(Br)cc2cc1C(c1cccc(Cl)c1)C1(O)CCNC(Cc2ccccc2)C1` (stereo not drawn) [Compound 86], `CSc1nc2ccc(Br)cc2cc1C(c1ccc(Cl)cc1)C1(O)CCNC(Cc2ccccc2)C1` (stereo not drawn) [Compound 87] is 1.6-fold higher in IC90: 4.56 µg/mL (≈ 8.48 µM) for the first, 7.15 µg/mL (≈ 12.6 µM) for the second.

tested on: Mycobacterium smegmatis (ATCC607); assay: In-vitro anti-bacterial activity against strain M. Smegmatis ATCC607; assay type: cell-based; conditions: 90% inhibitory concentration for bacterial growth, 48 hours, Alamar Blue fluorescence
Outline: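 Serial five-fold compound dilutions in BSA-supplemented wells, inoculated with ~250 CFU/well in Mueller-Hinton broth, incubated 48 h at 37 °C, 5% CO2. Growth read by Alamar Blue fluorescence (ex 530/em 590 nm); IC90 in μg/ml.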

`COc1nc2ccc(-c3cccnc3)cc2cc1C(c1cccc(Cl)c1)C1(O)CCNC(Cc2ccccc2)C1` (stereo not drawn) [Compound 15] and `COc1nc2ccc(Cl)cc2cc1C(c1ccc(Cl)cc1)C1(O)CCNC(Cc2ccccc2)C1` (stereo not drawn) [Compound 94] are within 1.5-fold of each other in “IC90 MSM 607” value: 1.38 µg/mL (≈ 2.51 µM) for the first, 1.76 µg/mL (≈ 3.47 µM) for the second.

Going from `COc1nc2ccc(S(C)(=O)=O)cc2cc1C(c1ccc(Cl)cc1)C1(O)CCNC(Cc2ccccc2)C1` (stereo not drawn) [Compound 38] to `COc1nc2ccc(SC)cc2cc1C(c1ccc(Cl)cc1)C1(O)CCNC(Cc2ccccc2)C1` (stereo not drawn) [Compound 91], the “IC90 MSM 607” value falls from 3.48 µg/mL (≈ 6.31 µM) to 1.64 µg/mL (≈ 3.16 µM) (2.1-fold).

`O=c1[nH]c2ccc(Br)cc2cc1C(c1cccc(Cl)c1)C1(O)CCNC(Cc2ccccc2)C1` (stereo not drawn) [Compound 86] and `CSc1nc2ccc(Br)cc2cc1C(c1ccc(Cl)cc1)C1(O)CCNC(Cc2ccccc2)C1` (stereo not drawn) [Compound 87] are within 1.5-fold of each other in “IC90 MSM 607” value: 4.07 µg/mL (≈ 7.57 µM) for the first, 2.85 µg/mL (≈ 5.02 µM) for the second.

`CSc1nc2ccc(Br)cc2cc1C(c1ccc(Cl)cc1)C1(O)CCNC(Cc2ccccc2)C1` (stereo not drawn) [Compound 88] and `COc1nc2ccc(SC)cc2cc1C(c1ccc(Cl)cc1)C1(O)CCNC(Cc2ccccc2)C1` (stereo not drawn) [Compound 92] are within 1.5-fold of each other in “IC90 MSM 607” value: 1.66 µg/mL (≈ 2.92 µM) for the first, 1.64 µg/mL (≈ 3.16 µM) for the second.

First: COc1nc2ccc(SC)cc2cc1C(c1ccc(Cl)cc1)C1(O)CCNC(Cc2ccccc2)C1 (stereo not drawn) [Compound 93]
Second: COc1nc2ccc(Br)cc2cc1C(c1ccc(SC)cc1)C1(O)CCNC(Cc2ccccc2)C1 (stereo not drawn) [Compound 98]
The “IC90 MSM 607” value of the first is 1.8-fold higher: 2.01 µg/mL (≈ 3.87 µM) for the first, 1.12 µg/mL (≈ 1.99 µM) for the second.

In the case of `COc1nc2ccc(Br)cc2cc1C(c1ccc(SC)cc1)C1(O)CCNC(Cc2ccccc2)C1` (stereo not drawn) [Compound 99], the “IC90 MSM 607” value was 1.42 µg/mL (≈ 2.52 µM).

tested on: not given; assay: not given; conditions: not given

Going from `COc1nc2ccc(-c3cccnc3)cc2cc1C(c1cccc(Cl)c1)C1(O)CCNC(Cc2ccccc2)C1` (stereo not drawn) [Compound 15] to `COc1nc2ccc(SC)cc2cc1C(c1ccc(Cl)cc1)C1(O)CCNC(Cc2ccccc2)C1` (stereo not drawn) [Compound 91], the melting point falls from 220 °C to 214 °C.

Going from `COc1nc2ccc(S(C)(=O)=O)cc2cc1C(c1ccc(Cl)cc1)C1(O)CCNC(Cc2ccccc2)C1` (stereo not drawn) [Compound 38] to `COc1nc2ccc(SC)cc2cc1C(c1ccc(Cl)cc1)C1(O)CCNC(Cc2ccccc2)C1` (stereo not drawn) [Compound 92], the melting point falls from 130 °C to 114 °C.

First: CSc1nc2ccc(Br)cc2cc1C(c1ccc(Cl)cc1)C1(O)CCNC(Cc2ccccc2)C1 (stereo not drawn) [Compound 87]
Second: COc1nc2ccc(Br)cc2cc1C(c1ccc(SC)cc1)C1(O)CCNC(Cc2ccccc2)C1 (stereo not drawn) [Compound 99]
The melting point of the first is higher: 227 °C for the first, 214 °C for the second.
